The record followed here is PubChem BioAssay (NCI).

Test systems include CAKI-1 renal; K-562 leukemia; UACC-62 melanoma; IGROV1 ovarian; HCT-116 colon; SF-268 CNS; 786-0 renal; BT-549 breast; KM12 colon; ACHN renal; NCI-H23 lung; UACC-257 melanoma; SNB-19 CNS; SF-295 CNS; SN12C renal; T-47D breast; SR leukemia.
What all share (assay): NCI-60 cell line screen, 48 h

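Interpolation was linear, between the two tested concentrations surrounding the appropriate level; five concentrations were tested over 48 hours in 96-well plates. Here, GI50 denotes the concentration required for 50% inhibition of growth. TGI: total growth inhibition.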 A value given as a limit tells only on which side of the number the result lay.

Consider `CC(C)=CCC[C@](C)(O)[C@H]1CC[C@]2(C)[C@@H]1[C@H](O)C[C@@H]1[C@@]3(C)CC[C@H](O[C@@H]4O[C@H](CO)[C@@H](O)[C@H](O)[C@H]4O)C(C)(C)[C@@H]3CC[C@]12C`, for which the TGI is 34.2 µM with CAKI-1 renal; 38.1 µM in the assay on K-562 leukemia; 31 µM with UACC-62 melanoma; 29.8 µM in the assay on IGROV1 ovarian; 41.2 µM in the assay with HCT-116 colon; 29.3 µM with SF-268 CNS. For the same compound, the TGI with 786-0 renal was 36 µM; with BT-549 breast, 34.3 µM; with KM12 colon it was 33.3 µM; in the assay with ACHN renal it was 32.9 µM; in the assay with NCI-H23 lung, 38 µM; in the assay on UACC-257 melanoma, 41.1 µM. The TGI is 35.4 µM with SNB-19 CNS; 39.6 µM with SF-295 CNS; 32.9 µM with SN12C renal; 34 µM in the assay on T-47D breast; 28.8 µM in the assay with SR leukemia.

Take `CCc1ccc(CCC(=O)O)nc1`: the TGI in the assay with CAKI-1 renal, with K-562 leukemia, in the assay with UACC-62 melanoma, with IGROV1 ovarian, with HCT-116 colon and with SF-268 CNS was more than 100 µM each time. Moreover, the TGI in the assay on 786-0 renal, in the assay with BT-549 breast, with KM12 colon, in the assay with ACHN renal, with NCI-H23 lung and in the assay with UACC-257 melanoma was more than 100 µM each time. Besides, the TGI with SNB-19 CNS, in the assay on SF-295 CNS, in the assay with SN12C renal, with T-47D breast and with SR leukemia was more than 100 µM each time.

On to `O=C(O)CN1CCNCCN(CC(=O)O)CCNCC1`, for which the TGI with CAKI-1 renal, with K-562 leukemia, in the assay with UACC-62 melanoma, with IGROV1 ovarian, in the assay on HCT-116 colon and in the assay with SF-268 CNS was more than 100 µM each time. Besides, the TGI in the assay with 786-0 renal, in the assay on BT-549 breast, in the assay on KM12 colon, with ACHN renal, in the assay on NCI-H23 lung and in the assay with UACC-257 melanoma was more than 100 µM each time. The TGI was more than 100 µM in the assay with SNB-19 CNS; more than 100 µM with SF-295 CNS; more than 100 µM in the assay on SN12C renal; more than 100 µM with T-47D breast; more than 96.5 µM in the assay with SR leukemia.

In the case of `CCCCCCNC(=O)c1cc(C#Cc2cc(OC)ccc2OC)ccc1OC`, the TGI in the assay on CAKI-1 renal, with K-562 leukemia, in the assay on UACC-62 melanoma, with IGROV1 ovarian, in the assay with HCT-116 colon and with SF-268 CNS was more than 100 µM each time. In addition, the TGI in the assay with 786-0 renal, in the assay with BT-549 breast, in the assay on KM12 colon, with ACHN renal, in the assay with NCI-H23 lung and in the assay on UACC-257 melanoma was more than 100 µM throughout. Further, the TGI is more than 100 µM in the assay with SNB-19 CNS; more than 100 µM with SF-295 CNS; more than 100 µM in the assay on SN12C renal; 11 µM in the assay with T-47D breast; more than 100 µM with SR leukemia. In addition, the GI50 with UACC-62 melanoma was 56.8 µM; in the assay on HCT-116 colon it was 6.9 µM; in the assay on SN12C renal it was more than 100 µM.
